The values below come from patent EP0872233A1, “Antiretroviral compositions with improved bioavailability” (JANSSEN PHARMACEUTICA N.V., priority 1997, dated 1998).

A short description of one data set: solubility in water. It is filed as physicochemical. The conditions noted are these: room temperature, pH of 6.5, racemic free base.
A short description of data set [1]: thermal stability at melt-extrusion temperatures. It is filed as physicochemical. The conditions noted are these: temperatures up to 300°C. The method, then: One of the most important parameters of melt extrusion is the temperature at which the melt-extruder is operating. […] At temperatures lower than 120°C, loviride will not dissolve sufficiently in most water-soluble polymers and the extrudate will not have the required bioavailability. In addition, the process is difficult because of the high viscosity of the mixture. At temperatures of more than 300°C the water-soluble polymer may decompose to an unacceptable level.

For data set [2] the following is noted: in vivo.
On the set-up of data set [3]: AUClast: dose or concentration left out as unconfirmed. As to conditions: for Cmax: human, in vivo, po, 100 mg. As for the experimental part: In this study 12 healthy volunteers in fasting conditions were administered a tablet of example 1 (100 mg loviride). Plasma levels of each of the loviride enantiomers were determined and the following bioavailability data were calculated therefrom.

Consider `CC(=O)c1ccc(C)cc1NC(C(N)=O)c1c(Cl)cccc1Cl` (racemic) [loviride, (±)-α-[(2-acetyl-5-methylphenyl)amino]-2,6-dichlorobenzeneacetamide], for which the solubility result in the data set “solubility in water” is “less than 0.1 mg/100ml”. Moreover, the thermal stability result in data set [1] was “thermally very stable”. Moreover, the half-life entry in data set [2] is on record as “short”.
As for `CC(=O)c1ccc(C)cc1NC(C(N)=O)c1c(Cl)cccc1Cl` (single isomer, unassigned; (-)) [(-)-loviride], in data set [3], the AUClast was 1,347 ± 512 ng.h/ml and the Cmax stood at 155 ± 66 ng/mL.
For `CC(=O)c1ccc(C)cc1NC(C(N)=O)c1c(Cl)cccc1Cl` (single isomer, unassigned; (+)) [(+)-loviride] the same measures were 18,180 ± 7,197 ng.h/ml and 890 ± 292 ng/mL.

A word on the Cmax: it is the peak of the concentration-time curve.
